Here are results for four compounds from US10844049B2, “GLP-1R agonists and uses thereof” (QILU REGOR THERAPEUTICS INC., priority 2018, dated 2020).

Assay [1] has as its target T1, GLP1R (Homo sapiens, UniProt P43220). Put plainly: GLP-1R/β-Arrestin recruitment assay (PathHunter eXpress GLP1R CHO-K1 β-Arrestin GPCR Assay). In kind it is cell-based. Set-up: host or cells: PathHunter CHO-K1 GLP1R β-Arrestin cells. Particulars: averaged Bmax, percentage of control GLP-1 (7-37), highest concentration tested. The source says:
GLP-1R agonist activity with respect to β-arrestin recruitment can be determined with a cell-based functional assay using PathHuntcr eXpress GLP1R CHO-K1 β-Arrestin GPCR Assay kit (DiscovcrX Cat #93-0300E2CP0M).
The PathHunter β-Arrestin GPCR assay technology utilizes a β-galactosidase (β-gal) enzyme that is split into two fragments, the smaller Enzyme Donor (ED) and the larger Enzyme Acceptor (EA). These fragments can be fused to two proteins that may interact with each other, such as EA-β-Arrestin and ED-GLP-1R. The fusions can be stably expressed in a test cell line, such as the PathHunter CHO-K1 GLP1R β-Arrestin cells described below.
Independently, these fragment fusions have no β-gal activity; however, in solution or in a living cell, they can be brought together and complement to form an active β-gal enzyme due to the interaction between the fused proteins, thus generating a chemiluminescent signal in the presence of a suitable β-gal substrate.
In this experiment, PathHunter CHO-K1 GLP1R β-Arrestin cells from the assay kit were plated at a density of 1000 or 2000 cells/20 μl/well in a 384-well white/clear bottom plates (Greiner Cat #781098). Frozen cells were quickly thawed and 10 mL of cell plating medium (provided by the kit) was added to thawed cells. Cells were stored in a 37° C. incubator under 5% CO2 and kept for approximately 48 hours until ready to ran the assay.
Reference and test compounds were dissolved in 100% DMSO. 5× concentration of an agonist was prepared in serum free DMEM (Thermo Cat #11965). 5 μL of this solution was added to 20 μL cell medium in assay plate for a final top concentration of 10 μM. Plates were then incubated at 37° C. under 5% CO2 for 90 min.
Following 90 min incubation, detection reagents were made up by combining 1 part Galacton Star Substrate with 5 parts Emerald II™ Solution, and 19 parts of PathHunter Cell Assay Buffer, respectively. 12.5 μL detection reagent was added to each well. The plates were then incubated at room temperature in dark for 60 min. Plates were then read on Envision for 0.1 sec/well.
EC50 determinations were made from agonist dose-response curves analyzed with a curve fitting program using a 4-parameter logistic dose response equation.
Cells were plated at a density of 1000 or 2000 cells/20 μL/well. Frozen cells were quickly thawed and added to 10 mL of cell plating medium. Cells were stored in a 37° C. incubator under 5% CO2 and left for approximately 48 hours until ready to run the assay.
• 1) Reference agonist compound GLP1 (7-37): dissolved with DMSO to make 1 mM stock solutions, aliquoted and stored at −80° C. • 2) Test compounds (such as the compounds of the invention) came solubilized in 100% DMSO.
Prepare 10× concentration of an agonist in serum free DMEM, and add all solutions into the compound plate. 2.5 μL of this solution was added to 20 μL cell medium in assay plate for a final top concentration of 10 μM. Plates were incubated at 37° C. under 5% CO2 for 30 min. An additional 2.5 μL of Buffer was added to the entire plate for agonist mode and incubated at 37° C. for another 90 min.
Following 90 min incubation, detection reagents were made up as described. 12.5 μL was added to all wells. The plates were then incubated at room temperature in dark for 60 min. Plates were then read on Envision for 0.1 sec/well.
Data analysis: GraphPad Prism 6 was used for establishment of progression curve. EC50S or IC50s were determined by 4-parameter logistic dose response equation.

The target of assay [2] is T1, GLP1R. The experiment in a line: GLP1R cAMP HTRF assay, HEK293/GLP-1R/CRE/Luc (HEK293T cells). In kind it is cell-based. The settings on record: read-out: EC50. The method in brief: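 cAMP accumulation via HTRF after 30 min, 37 °C exposure of 1000 receptor-expressing cells/well to compound (0.5% DMSO final) in IBMX (500 μM)/0.1% BSA DPBS.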

T1 sequence (P43220 24-463): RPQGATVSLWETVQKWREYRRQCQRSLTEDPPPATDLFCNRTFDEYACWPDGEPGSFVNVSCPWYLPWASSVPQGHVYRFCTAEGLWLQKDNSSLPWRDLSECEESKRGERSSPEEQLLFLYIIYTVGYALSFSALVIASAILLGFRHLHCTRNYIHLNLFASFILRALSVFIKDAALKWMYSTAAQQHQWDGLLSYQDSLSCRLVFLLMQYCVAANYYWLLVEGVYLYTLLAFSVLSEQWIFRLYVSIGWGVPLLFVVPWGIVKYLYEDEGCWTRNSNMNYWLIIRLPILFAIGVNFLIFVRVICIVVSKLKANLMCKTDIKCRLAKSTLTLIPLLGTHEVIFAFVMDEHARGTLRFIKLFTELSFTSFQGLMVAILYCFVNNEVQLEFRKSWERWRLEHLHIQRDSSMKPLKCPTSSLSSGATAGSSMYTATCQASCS

As a reminder, the EC50 is the concentration needed to bring the measured effect to its halfway point. Regarding `O=C(O)c1ccc2nc(CN3CCN(c4cccc(NCc5ccc(Cl)cc5F)n4)CC3)n(C[C@@H]3CCO3)c2c1` [Compound 1, (S)-2-((4-(6-(4-chloro-2-fluorobenzylamino)pyridin-2-yl)piperazin-1-yl)methyl)-1-(oxetan-2-ylmethyl)-1 h-benzo[d]imidazole-6-carboxylic acid], the “Bmax (POC)” value at GLP1R [1] is on record as 2.80 POC. For the same compound, the EC50 at GLP1R [2] is at most 15 nM.
For `N#Cc1ccc(COc2nccc(N3CCN(Cc4nc5ccc(C(=O)O)cc5n4C[C@@H]4CCO4)CC3)n2)c(F)c1` [Compound 10, (S)-2-((4-(2-((4-cyano-2-fluorobenzyl)oxy)pyrimidin-4-yl)piperazin-1-yl)methyl)-1-(oxetan-2-ylmethyl)-1H-benzo[d]imidazole-6-carboxylic acid] the same measures were 4.48 POC and at most 150 nM.
On the same counts, the results for `O=C(O)c1ccc2nc(CN3CCN(c4cncc(OCc5ccc(Cl)cc5F)n4)CC3)n(C[C@@H]3CCO3)c2c1` [Compound 11, (S)-2-((4-(6-(4-chloro-2-fluorobenzyloxy)pyrazin-2-yl)piperazin-1-yl)methyl)-1-(oxetan-2-ylmethyl)-1 h-benzo[d]imidazole-6-carboxylic acid] are 7.16 POC and at most 15 nM.
Turning to `N#Cc1ccc(COc2cncc(N3CCN(Cc4nc5ccc(C(=O)O)cc5n4C[C@@H]4CCO4)CC3)n2)c(F)c1` [Compound 12, (S)-2-((4-(6-(4-cyano-2-fluorobenzyloxy)pyrazin-2-yl)piperazin-1-yl)methyl)-1-(oxetan-2-ylmethyl)-1 h-benzo[d]imidazole-6-carboxylic acid], the “Bmax (POC)” value on GLP1R [1] is listed as 9.66 POC. Besides, the EC50 on GLP1R [2] is at most 15 nM.
